PubChem BioAssay (NCI)
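Grown in 96-well plates, cells were treated for 48 hours with each compound at five concentrations. Insufficient inhibition: endpoint recorded as highest concentration tested. TGI denotes the concentration required for complete inhibition of growth.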

Experiments:
Assay in all cases: NCI tumour cell line growth inhibition, 48 h
786-0 renal = system: 786-0 renal
A498 renal = system: A498 renal
A549 NSCLC = system: A549 NSCLC
ACHN renal = system: ACHN renal
CAKI-1 renal = system: CAKI-1 renal
CCRF-CEM leukemia = system: CCRF-CEM leukemia
COLO 205 colon = system: COLO 205 colon
DLD-1 colon = system: DLD-1 colon
DMS 114 small cell lung = system: DMS 114 small cell lung
DMS 273 small cell lung = system: DMS 273 small cell lung
EKVX NSCLC = system: EKVX NSCLC
HCC-2998 colon = system: HCC-2998 colon
HCT-116 colon = system: HCT-116 colon
HCT-15 colon = system: HCT-15 colon
HL-60(TB) leukemia = system: HL-60(TB) leukemia
HOP-18 NSCLC = system: HOP-18 NSCLC
HOP-62 NSCLC = system: HOP-62 NSCLC
HOP-92 NSCLC = system: HOP-92 NSCLC
HT29 colon = system: HT29 colon
IGROV1 ovarian = system: IGROV1 ovarian
K-562 leukemia = system: K-562 leukemia
KM12 colon = system: KM12 colon
KM20L2 colon = system: KM20L2 colon
LOX IMVI melanoma = system: LOX IMVI melanoma
LXFL 529 NSCLC = system: LXFL 529 NSCLC
M14 melanoma = system: M14 melanoma
M19-MEL melanoma = system: M19-MEL melanoma
MALME-3M melanoma = system: MALME-3M melanoma
MOLT-4 leukemia = system: MOLT-4 leukemia
NCI-H226 lung = system: NCI-H226 lung
NCI-H23 lung = system: NCI-H23 lung
NCI-H460 lung = system: NCI-H460 lung
NCI-H522 lung = system: NCI-H522 lung
OVCAR-3 ovarian = system: OVCAR-3 ovarian
OVCAR-4 ovarian = system: OVCAR-4 ovarian
OVCAR-5 ovarian = system: OVCAR-5 ovarian
OVCAR-8 ovarian = system: OVCAR-8 ovarian
RPMI-8226 leukemia = system: RPMI-8226 leukemia
RXF 393 renal = system: RXF 393 renal
RXF-631 renal = system: RXF-631 renal
SF-268 CNS = system: SF-268 CNS
SF-295 CNS = system: SF-295 CNS
SF-539 CNS = system: SF-539 CNS
SK-MEL-2 melanoma = system: SK-MEL-2 melanoma
SK-MEL-28 melanoma = system: SK-MEL-28 melanoma
SK-MEL-5 melanoma = system: SK-MEL-5 melanoma
SK-OV-3 ovarian = system: SK-OV-3 ovarian
SN12C renal = system: SN12C renal
SNB-19 CNS = system: SNB-19 CNS
SNB-75 CNS = system: SNB-75 CNS
SR leukemia = system: SR leukemia
SW-620 colon = system: SW-620 colon
TK-10 renal = system: TK-10 renal
U251 CNS = system: U251 CNS
UACC-257 melanoma = system: UACC-257 melanoma
UACC-62 melanoma = system: UACC-62 melanoma
UO-31 renal = system: UO-31 renal
XF 498 CNS = system: XF 498 CNS
SNB-78 CNS = system: SNB-78 CNS

## C=C=C(C(=O)OC)S(=O)c1ccc([N+](=O)[O-])cc1[N+](=O)[O-] (configuration not stated)
786-0 renal
  TGI: > 66.6 µM
A498 renal
  TGI: > 100 µM
A549 NSCLC
  TGI: > 100 µM
ACHN renal
  TGI: > 68.5 µM
CAKI-1 renal
  TGI: 63.1 µM
CCRF-CEM leukemia
  TGI: 32.5 µM
COLO 205 colon
  TGI: 52.7 µM
DLD-1 colon
  TGI: 29.7 µM
DMS 114 small cell lung
  TGI: 45.6 µM
DMS 273 small cell lung
  TGI: 64.1 µM
EKVX NSCLC
  TGI: > 100 µM
HCC-2998 colon
  TGI: 31.2 µM
HCT-116 colon
  TGI: 50.3 µM
HCT-15 colon
  TGI: 45.3 µM
HL-60(TB) leukemia
  TGI: 45.3 µM
HOP-18 NSCLC
  TGI: 98.7 µM
HOP-62 NSCLC
  TGI: > 82.5 µM
HOP-92 NSCLC
  TGI: 66.7 µM
HT29 colon
  TGI: 52.9 µM
IGROV1 ovarian
  TGI: 97.5 µM
K-562 leukemia
  TGI: 46.3 µM
KM12 colon
  TGI: > 72 µM
KM20L2 colon
  TGI: 63.8 µM
LOX IMVI melanoma
  TGI: 46.4 µM
LXFL 529 NSCLC
  TGI: 38 µM
M14 melanoma
  TGI: > 69.5 µM
M19-MEL melanoma
  TGI: 62 µM
MALME-3M melanoma
  TGI: > 86.2 µM
MOLT-4 leukemia
  TGI: 50.3 µM
NCI-H226 lung
  TGI: > 100 µM
NCI-H23 lung
  TGI: > 87.3 µM
NCI-H460 lung
  TGI: > 91.2 µM
NCI-H522 lung
  TGI: 21 µM
OVCAR-3 ovarian
  TGI: 63.1 µM
OVCAR-4 ovarian
  TGI: 63.6 µM
OVCAR-5 ovarian
  TGI: > 100 µM
OVCAR-8 ovarian
  TGI: 55.1 µM
RPMI-8226 leukemia
  TGI: 55.1 µM
RXF 393 renal
  TGI: > 68 µM
RXF-631 renal
  TGI: > 69.7 µM
SF-268 CNS
  TGI: > 74.6 µM
SF-295 CNS
  TGI: > 100 µM
SF-539 CNS
  TGI: 55.3 µM
SK-MEL-2 melanoma
  TGI: > 79.8 µM
SK-MEL-28 melanoma
  TGI: > 70 µM
SK-MEL-5 melanoma
  TGI: > 100 µM
SK-OV-3 ovarian
  TGI: > 100 µM
SN12C renal
  TGI: 49 µM
SNB-19 CNS
  TGI: > 100 µM
SNB-75 CNS
  TGI: > 69.7 µM
SR leukemia
  TGI: 35.4 µM
SW-620 colon
  TGI: 36.3 µM
TK-10 renal
  TGI: > 85.7 µM
U251 CNS
  TGI: 62.7 µM
UACC-257 melanoma
  TGI: > 79.9 µM
UACC-62 melanoma
  TGI: > 71.4 µM
UO-31 renal
  TGI: 98.2 µM
XF 498 CNS
  TGI: > 71.2 µM

## Cc1c(Cl)cccc1NC(=O)CC1C(=O)Nc2ccccc2S1(=O)=O (configuration not stated)
786-0 renal
  TGI: 32.4 µM
A498 renal
  TGI: 28.9 µM
A549 NSCLC
  TGI: 33.2 µM
ACHN renal
  TGI: 31.5 µM
CAKI-1 renal
  TGI: 38.8 µM
CCRF-CEM leukemia
  TGI: 47.8 µM
DLD-1 colon
  TGI: 30.4 µM
DMS 114 small cell lung
  TGI: 44.9 µM
DMS 273 small cell lung
  TGI: 21.4 µM
EKVX NSCLC
  TGI: 70 µM
HCC-2998 colon
  TGI: 33.4 µM
HCT-116 colon
  TGI: 30.3 µM
HCT-15 colon
  TGI: 25.7 µM
HL-60(TB) leukemia
  TGI: 16 µM
HOP-92 NSCLC
  TGI: 31.7 µM
HT29 colon
  TGI: 38.2 µM
IGROV1 ovarian
  TGI: 31.7 µM
K-562 leukemia
  TGI: 50.1 µM
KM20L2 colon
  TGI: 44.9 µM
LOX IMVI melanoma
  TGI: 29.1 µM
LXFL 529 NSCLC
  TGI: 29 µM
M14 melanoma
  TGI: 29.3 µM
M19-MEL melanoma
  TGI: 55.3 µM
MALME-3M melanoma
  TGI: 42.4 µM
MOLT-4 leukemia
  TGI: 24.3 µM
NCI-H226 lung
  TGI: 35.1 µM
NCI-H23 lung
  TGI: 37.3 µM
NCI-H460 lung
  TGI: 30 µM
OVCAR-3 ovarian
  TGI: 31.7 µM
OVCAR-4 ovarian
  TGI: 67.2 µM
OVCAR-5 ovarian
  TGI: 41.5 µM
OVCAR-8 ovarian
  TGI: 34.5 µM
RPMI-8226 leukemia
  TGI: 32.3 µM
RXF 393 renal
  TGI: 28.9 µM
SF-268 CNS
  TGI: 38.2 µM
SF-295 CNS
  TGI: 36.5 µM
SF-539 CNS
  TGI: 28.7 µM
SK-MEL-2 melanoma
  TGI: 45.9 µM
SK-MEL-28 melanoma
  TGI: 38.6 µM
SK-MEL-5 melanoma
  TGI: 26.7 µM
SN12C renal
  TGI: 31.9 µM
SNB-19 CNS
  TGI: 52.3 µM
SNB-75 CNS
  TGI: 32.5 µM
SNB-78 CNS
  TGI: 45.5 µM
SR leukemia
  TGI: 30.3 µM
SW-620 colon
  TGI: 43.7 µM
TK-10 renal
  TGI: 56.6 µM
U251 CNS
  TGI: 26.5 µM
UACC-257 melanoma
  TGI: 77.8 µM
UACC-62 melanoma
  TGI: 31.7 µM
UO-31 renal
  TGI: 32.1 µM
XF 498 CNS
  TGI: 30 µM

## CCN(CC)C1CC(n2cc(C)c(=O)[nH]c2=O)OC1CO (configuration not stated)
786-0 renal
  TGI: > 100 µM
A498 renal
  TGI: > 100 µM
CAKI-1 renal
  TGI: > 100 µM
CCRF-CEM leukemia
  TGI: > 100 µM
COLO 205 colon
  TGI: > 100 µM
DLD-1 colon
  TGI: > 100 µM
DMS 114 small cell lung
  TGI: > 100 µM
DMS 273 small cell lung
  TGI: > 100 µM
HCC-2998 colon
  TGI: > 100 µM
HCT-116 colon
  TGI: > 100 µM
HL-60(TB) leukemia
  TGI: > 100 µM
HOP-62 NSCLC
  TGI: > 100 µM
HOP-92 NSCLC
  TGI: > 100 µM
IGROV1 ovarian
  TGI: > 100 µM
K-562 leukemia
  TGI: > 100 µM
LXFL 529 NSCLC
  TGI: > 100 µM
M14 melanoma
  TGI: > 100 µM
M19-MEL melanoma
  TGI: > 100 µM
MALME-3M melanoma
  TGI: > 100 µM
MOLT-4 leukemia
  TGI: > 100 µM
NCI-H226 lung
  TGI: > 100 µM
NCI-H23 lung
  TGI: > 100 µM
NCI-H460 lung
  TGI: > 100 µM
NCI-H522 lung
  TGI: > 100 µM
OVCAR-4 ovarian
  TGI: > 100 µM
RPMI-8226 leukemia
  TGI: > 100 µM
RXF-631 renal
  TGI: > 100 µM
SF-268 CNS
  TGI: > 100 µM
SF-539 CNS
  TGI: > 100 µM
SK-MEL-2 melanoma
  TGI: > 100 µM
SK-MEL-28 melanoma
  TGI: > 100 µM
SK-OV-3 ovarian
  TGI: > 100 µM
SN12C renal
  TGI: > 100 µM
SNB-75 CNS
  TGI: > 100 µM
SNB-78 CNS
  TGI: > 100 µM
SR leukemia
  TGI: > 100 µM
UACC-62 melanoma
  TGI: > 100 µM
UO-31 renal
  TGI: > 100 µM
XF 498 CNS
  TGI: > 100 µM

## C[N+]1(C)C/C(=C\c2ccncc2)C(=O)/C(=C/c2ccncc2)C1
786-0 renal
  TGI: > 100 µM
A498 renal
  TGI: > 100 µM
A549 NSCLC
  TGI: > 100 µM
ACHN renal
  TGI: > 100 µM
CAKI-1 renal
  TGI: > 100 µM
CCRF-CEM leukemia
  TGI: > 100 µM
COLO 205 colon
  TGI: > 100 µM
DLD-1 colon
  TGI: > 100 µM
DMS 114 small cell lung
  TGI: > 100 µM
DMS 273 small cell lung
  TGI: > 100 µM
EKVX NSCLC
  TGI: > 100 µM
HCC-2998 colon
  TGI: > 100 µM
HCT-116 colon
  TGI: > 100 µM
HCT-15 colon
  TGI: > 100 µM
HL-60(TB) leukemia
  TGI: 79.5 µM
HOP-18 NSCLC
  TGI: > 100 µM
HOP-62 NSCLC
  TGI: > 100 µM
HOP-92 NSCLC
  TGI: > 100 µM
HT29 colon
  TGI: > 100 µM
IGROV1 ovarian
  TGI: > 100 µM
KM12 colon
  TGI: > 100 µM
KM20L2 colon
  TGI: > 100 µM
LOX IMVI melanoma
  TGI: > 100 µM
LXFL 529 NSCLC
  TGI: > 100 µM
M14 melanoma
  TGI: > 100 µM
M19-MEL melanoma
  TGI: > 100 µM
MALME-3M melanoma
  TGI: > 100 µM
MOLT-4 leukemia
  TGI: > 100 µM
NCI-H460 lung
  TGI: > 100 µM
NCI-H522 lung
  TGI: 42 µM
OVCAR-3 ovarian
  TGI: > 100 µM
OVCAR-4 ovarian
  TGI: > 100 µM
OVCAR-5 ovarian
  TGI: > 100 µM
OVCAR-8 ovarian
  TGI: > 100 µM
RPMI-8226 leukemia
  TGI: > 100 µM
RXF 393 renal
  TGI: > 100 µM
SF-268 CNS
  TGI: 84.7 µM
SF-295 CNS
  TGI: > 100 µM
SF-539 CNS
  TGI: > 100 µM
SK-MEL-28 melanoma
  TGI: > 100 µM
SK-MEL-5 melanoma
  TGI: > 100 µM
SK-OV-3 ovarian
  TGI: > 100 µM
SN12C renal
  TGI: > 100 µM
SNB-19 CNS
  TGI: > 100 µM
SNB-75 CNS
  TGI: > 100 µM
SNB-78 CNS
  TGI: > 100 µM
SR leukemia
  TGI: > 100 µM
SW-620 colon
  TGI: > 100 µM
TK-10 renal
  TGI: > 100 µM
U251 CNS
  TGI: > 100 µM
UACC-257 melanoma
  TGI: > 100 µM
UACC-62 melanoma
  TGI: > 100 µM
UO-31 renal
  TGI: > 100 µM
